“And” between values parts separate entries of the source, which are not always exact repeats. Equal entries are not always repeated.
Tested on: B/T-ALL cell lines (BV-173, SUP-B15, REH, NALM-6, NALM-19, MOLT-4, RPMI-8402, CCRF-CEM)
Assay: Gene expression profiling (Affymetrix GeneChip Human Gene 1.0 ST)
Type: cell-based
Description: In order to identify gene expression changes specifically correlated with Chk1 inhibition and to better elucidate the mechanism of action of Chk1 inhibitor, gene expression profiling (GEP) analysis was performed by microarray on treated B/T-ALL cell lines (BV-173, SUP-B15, REH, NALM-6, NALM-19, MOLT-4, RPMI-8402, and CCRF-CEM) and on their untreated counterparts (DMSO 0.1 %) after 24 h of drug exposure. […] To identify peculiar critical pathways affected by Chk1 inhibition, the differentially expressed genes were analyzed in terms of biological function using the MetaCore pathway mapping software (GeneGo Inc.) which categorizes genes in pathway maps, Gene Ontology (GO) cellular processes, and cellular and molecular process networks. Consistent with a Chk1’s mechanism of action, the three top scored maps (map with the lowest p value) were “cell cycle: estrogen receptor 1 (ESR1) regulation of G1/S transition” including c-Jun/c-Fos, cyclin A, CARM1, Skp2/TrCP/FBXW, SKP2, c-Fos, CDK4, NCOA3, c-Jun, and CDK2 genes (Additional file 1: Figure S5); “apoptosis and survival: granzyme A signaling” including PHAP1, Ku70/80, Ku80, Ku70, histone H3, NDPK A, SET, histone H2B, and histone H1 genes (Additional file 1: Figure S6); and “DNA damage: ATM/ATR regulation of G1/S checkpoint” including PCNA, growth arrest and DNA damage 45 alpha (GADD45a), Chk2, cyclin A, NF-kB, cyclin-dependent kinase 4 (CDK4), FANCD2, Claspin, and CDK2 genes (Additional file 1: Figure S7). GO cellular processes highlighted 617 genes involved in cellular metabolic process (Additional file 3). Finally, the three top scored process networks impaired by the treatment with Chk1 inhibitor were as follows: the DNA damage checkpoint, the S phase of cell cycle, and the apoptosis, confirming the specificity of treatment on its target pathways (Additional file 4). […] Due to its implication in the regulation of the cell cycle and apoptosis, Western blot analysis against c-Jun was performed to better comprehend its biological role in response to PF-00477736. c-Jun is a component of the transcription factor activating protein-1 (AP-1) which is involved in cell cycle progression through the G1 phase by the regulation of the cyclin D1 [28]. […] The data found in the gene expression profile analysis were validated using qPCR.
Gene expression profiling on treated and untreated cells (DMSO 0.1 %) after 24 h of exposure to PF-0077736 was performed using Affymetrix GeneChip Human Gene 1.0 ST platform (Affymetrix Inc. Santa Clara, CA, USA) and following manufacturers’ instructions. Raw data were normalized by using the RMA algorithm and filtered. Genes differentially expressed were selected by analysis of variance (ANOVA) (p value threshold =0.05) using the Partek Genomics Suite software (Partek Incorporated Saint Louis, MO, USA; http://www.partek.com).

Cn1cc(-c2[nH]c3cc(NC(=O)[C@H](N)C4CCCCC4)cc4c3c2C=NNC4=O)cn1 [PF-00477736]
Fold-Change (PF-00477736 vs. DMSO), SESN2 (transcript ID 7899436, 24 h, up-regulated): 2.221
Fold-Change (PF-00477736 vs. DMSO), RNU11 (transcript ID 7899502, 24 h, up-regulated): 2.283
Fold-Change (PF-00477736 vs. DMSO), GADD45A (transcript ID 7902227, 24 h, up-regulated): 2.163
Fold-Change (PF-00477736 vs. DMSO), HIST2H4A (transcript ID 7905067, 24 h, up-regulated): 3.531
Fold-Change (PF-00477736 vs. DMSO), BTG2 (transcript ID 7908917, 24 h, up-regulated): 2.0536
Fold-Change (PF-00477736 vs. DMSO), ATF3 (transcript ID 7909610, 24 h, up-regulated): 2.764
Fold-Change (PF-00477736 vs. DMSO), JUN (transcript ID 7916609, 24 h, up-regulated): 5.3469
Fold-Change (PF-00477736 vs. DMSO), HIST2H2BF (transcript ID 7919584, 24 h, up-regulated): 2.188
Fold-Change (PF-00477736 vs. DMSO), HIST2H2BF (transcript ID 7919606, 24 h, up-regulated): 2.022
Fold-Change (PF-00477736 vs. DMSO), HIST2H4A (transcript ID 7919627, 24 h, up-regulated): 3.531
Fold-Change (PF-00477736 vs. DMSO), RGS16 (transcript ID 7922717, 24 h, up-regulated): 2.4
Fold-Change (PF-00477736 vs. DMSO), NFKB2 (transcript ID 7930074, 24 h, up-regulated): 2.262
Fold-Change (PF-00477736 vs. DMSO), KLF6 (transcript ID 7931810, 24 h, up-regulated): 2.17 and 2.174
Fold-Change (PF-00477736 vs. DMSO), BNIP3 (transcript ID 7937079, 24 h, down-regulated): -2.2734
Fold-Change (PF-00477736 vs. DMSO), BEST1 (transcript ID 7940582, 24 h, up-regulated): 2.3629
Fold-Change (PF-00477736 vs. DMSO), TCP11L2 (transcript ID 7958262, 24 h, up-regulated): 2.209
Fold-Change (PF-00477736 vs. DMSO), CD69 (transcript ID 7961075, 24 h, up-regulated): 3.17
Fold-Change (PF-00477736 vs. DMSO), RND1 (transcript ID 7962884, 24 h, up-regulated): 2.096
Fold-Change (PF-00477736 vs. DMSO), DDIT3 (transcript ID 7964460, 24 h, up-regulated): 3.32 and 3.325
Fold-Change (PF-00477736 vs. DMSO), FOS (transcript ID 7975779, 24 h, up-regulated): 2.40 and 2.404
Fold-Change (PF-00477736 vs. DMSO), CHAC1 (transcript ID 7982868, 24 h, up-regulated): 2.1
Fold-Change (PF-00477736 vs. DMSO), MAP1LC3B (transcript ID 7997740, 24 h, up-regulated): 2.05
Fold-Change (PF-00477736 vs. DMSO), ALDOC (transcript ID 8013660, 24 h, down-regulated): -2.184
Fold-Change (PF-00477736 vs. DMSO), ROCK1P1 (transcript ID 8019804, 24 h, up-regulated): 2.468
Fold-Change (PF-00477736 vs. DMSO), PPP1R15A (transcript ID 8030128, 24 h, up-regulated): 2.884
Fold-Change (PF-00477736 vs. DMSO), TRIB3 (transcript ID 8060344, 24 h, up-regulated): 2.719
Fold-Change (PF-00477736 vs. DMSO), CEBPB (transcript ID 8063386, 24 h, up-regulated): 2.112
Fold-Change (PF-00477736 vs. DMSO), NFKBIZ (transcript ID 8081386, 24 h, up-regulated): 2.098
Fold-Change (PF-00477736 vs. DMSO), IL8 (transcript ID 8095680, 24 h, up-regulated): 2.299
Fold-Change (PF-00477736 vs. DMSO), EGR1 (transcript ID 8108370, 24 h, up-regulated): 2.571
Fold-Change (PF-00477736 vs. DMSO), ARRDC3 (transcript ID 8113073, 24 h, up-regulated): 2.177
Fold-Change (PF-00477736 vs. DMSO), HIST1H2BJ (transcript ID 8124484, 24 h, up-regulated): 2.658
Fold-Change (PF-00477736 vs. DMSO), HIST1H2AJ (transcript ID 8124518, 24 h, up-regulated): 5.146
Fold-Change (PF-00477736 vs. DMSO), HIST1H2AM (transcript ID 8124540, 24 h, up-regulated): 2.131
Fold-Change (PF-00477736 vs. DMSO), IER3 (transcript ID 8124848, 24 h, up-regulated): 2.508
Fold-Change (PF-00477736 vs. DMSO), IER3 (transcript ID 8178435, 24 h, up-regulated): 2.417
Fold-Change (PF-00477736 vs. DMSO), IER3 (transcript ID 8179704, 24 h, up-regulated): 2.508
upregulated genes (treated vs DMSO 0.1 %, 24 h, 44 % of 941): 413 genes
down-modulated genes (treated vs DMSO 0.1 %, 24 h, 56 % of 941): 528 genes
differentially expressed genes (p < 0.05) (treated vs DMSO 0.1 %, 24 h of drug exposure): 941 genes

From PMC4635624, “In vitro and in vivo single-agent efficacy of checkpoint kinase inhibition in acute lymphoblastic leukemia” (Journal of Hematology & Oncology, 2015)
